Results: patent US4914110A, “Quinoline derivatives, their preparation and therapeutic compositions containing the same” (Societe de Conseils de Recherches et d'Applications …, priority 1988, dated 1990)
Converted amounts (≈) assume the structure as drawn.

Tests used:
solubility in water = type: physicochemical
[1] = test system: Proteus mirabilis NCTC 8559; test: bactericidal activity by serial dilution in Brain Heart Infusion Broth (MIC and MMC), P.m.; type: cell-based; conditions: 24 hours; for MIC: NCTC8559, 37° C., read-out: Minimal Inhibitory Concentration (MIC); for MBC: NCTC8559, sub-culture on Tryptone Soy Agar, 37° C., read-out: Minimal Microbiocidal Concentration (MMC)
Experimental: (§1) (A) The bactericidal activity of the compounds of the invention has been determined on various microorganisms, as hereinafter described.
(§2) Serial dilutions of the test and reference compounds are prepared in Brain Heart Infusion Broth (Oxoid CM225) in two-fold steps from 1000 μg/ml down to 0.5 μg/ml.
(§3) The test organisms are cultured on Tryptone Soy Agar (TSA, Oxoid CM131) and checked for viability and purity. Standardized inocula are then ppepared by inoculating slopes of TSA and incubating at 37° C. for 24 hours. The resultant bacterial growth is then removed by the addition of sterile physiological saline and shaking with glass beads. The suspensions of organisms are then standardized to give 50% transmission at […] on an SP600 Spectrophotometer. Calibration curves show this to yield approximately 10^8 colony forming units per ml.
(§4) 0.1 ml aliquots of these suspensions are then used to inoculate each of the prepared serial dilutions of the compounds in Brain Heart Infusion Broth.
(§5) The sets of dilutions are incubated at 37° C. for 24 hours and then inspected for the presence or absence of growth as shown by turbidity of the medium. The lowest concentration showing no growth of the test organism is recorded as the Minimal Inhibitory Concentration (MIC) of the compound for that organism.
(§6) Each of the tubes showing no growth are then sub-cultured onto plates of Tryptone Soy Agar and incubated at 37° C. for 24 hours. The plates are then inspected for the presence or absence of growth at the inoculation points. […] MIC and MMC are expressed in μg/ml.
(§7) The results are presented in the following table, in comparison with those for two reference compounds, nitrofuroxazide and pipemidic acid. The abreviations used in the table have the following meanings: […]

[2] = test system: Escherichia coli NCTC 8196; test: bactericidal activity by serial dilution in Brain Heart Infusion Broth (MIC and MMC), E.c.; type: cell-based; conditions: 24 hours; for MIC: NCTC8196, 37° C., read-out: Minimal Inhibitory Concentration (MIC); for MBC: NCTC8196, sub-culture on Tryptone Soy Agar, 37° C., read-out: Minimal Microbiocidal Concentration (MMC)
Experimental: as §1, §2, §3, §4, §5, §6, §7

[3] = test system: Salmonella enteritidis NCTC 6676; test: bactericidal activity by serial dilution in Brain Heart Infusion Broth (MIC and MMC), S.e.; type: cell-based; conditions: Salmonella enterica, 37° C., 24 hours; for MIC: read-out: Minimal Inhibitory Concentration (MIC); for MBC: sub-culture on Tryptone Soy Agar, read-out: Minimal Microbiocidal Concentration (MMC)
Experimental: as §1, §2, §3, §4, §5, §6
(§8) The results are presented in the following table, in comparison with those for two reference compounds, nitrofuroxazide and pipemidic acid. The abreviations used in the table have the following meanings:
S.e. Salmonella enteritidis

[4] = solubility in dimethylsulfoxide; type: physicochemical
[5] = test system: Streptococcus pyogenes NCTC 8198; test: bactericidal activity by serial dilution in Brain Heart Infusion Broth (MIC and MMC), S.p.; type: cell-based; conditions: 24 hours; for MIC: NCTC8198, 37° C., read-out: Minimal Inhibitory Concentration (MIC); for MBC: NCTC8198, sub-culture on Tryptone Soy Agar, 37° C., read-out: Minimal Microbiocidal Concentration (MMC)
Experimental: as §1, §2, §3, §4, §5, §6, §8
S.p. Streptococcus pyogenes

[6] = test system: Shigella boydii NCTC 9328; test: bactericidal activity by serial dilution in Brain Heart Infusion Broth (MIC and MMC), S.b.; type: cell-based; conditions: 24 hours; for MIC: NCTC9328, 37° C., read-out: Minimal Inhibitory Concentration (MIC); for MBC: NCTC9328, sub-culture on Tryptone Soy Agar, 37° C., read-out: Minimal Microbiocidal Concentration (MMC)
Experimental: as §1, §2, §3, §4, §5, §6, §8
S.b. Shigella boydii NCTC 9328

[7] = test system: Staphylococcus aureus ATCC 6538; test: bactericidal activity by serial dilution in Brain Heart Infusion Broth (MIC and MMC), S.a.; type: cell-based; conditions: 24 hours; for MIC: ATCC6538, 37° C., read-out: Minimal Inhibitory Concentration (MIC); for MBC: ATCC6538, sub-culture on Tryptone Soy Agar, 37° C., read-out: Minimal Microbiocidal Concentration (MMC)
Experimental: as §1, §2, §3, §4, §5, §6, §8
S.a. Staphylococcus aureus

[8] = test system: Pseudomonas aeruginosa ATCC 9027; test: bactericidal activity by serial dilution in Brain Heart Infusion Broth (MIC and MMC), P.a.; type: cell-based; conditions: 24 hours; for MIC: ATCC9027, 37° C., read-out: Minimal Inhibitory Concentration (MIC); for MBC: ATCC9027, sub-culture on Tryptone Soy Agar, 37° C., read-out: Minimal Microbiocidal Concentration (MMC)
Experimental: as §1, §2, §3, §4, §5, §6, §8
P.a. Pseudomonas aeruginosa

[9] = test system: Vibrio Cholerae, Vibrio parahemolyticus, Vibrio alginolyticus, Aeromonas hydrophila Sobria and Salmonella; test: bacteriostatic activity, preceding experiment (comparison within the series); type: cell-based; conditions: compared with the compounds of examples 1 to 5
Experimental: (B) The bacteriostatic activity of the compounds of the invention has also been searched against microorganisms more particularly related with gastro-enteritis.
This experiment was conducted in Mueller-Hinton gelose with tested compounds dissolved in dimethylsulfoxide (control dimethylsulfoxide was provided) at increasing concentrations from 0.01 to 100 μg. The strains used were Vibrio Cholerae (3 strains respectively from Europe, Africa and Conth-East-Asia), Vibrio parahemolyticus, Vibrio alginolyticus, Aeromonas hydrophila Sobria and Salmonella. Minimum inhibitory concentration was found for the 7 compounds of the invention, between 0.5 and 1 μg for the Salmonella strain and between 0.1 and 0.5 μg for the other strains, which denotes a strong bacteriostatic activity.

SMILES | solubility in water (solubility in water) | MIC [1] [µg/mL] | MBC [1] [µg/mL] | MIC [2] [µg/mL] | MBC [2] [µg/mL] | MIC [3] [µg/mL] | MBC [3] [µg/mL] | solubility in dimethylsulfoxide [4] | MIC [5] [µg/mL] | MBC [5] [µg/mL] | MIC [6] [µg/mL] | MBC [6] [µg/mL] | MIC [7] [µg/mL] | MBC [7] [µg/mL] | MIC [8] [µg/mL] | MBC [8] [µg/mL] | relative activity in preceding experiment [9]
CCn1cc(C(=O)O)c(=O)c2cc(F)cc(F)c21 [Example 1, 1,4-dihydro-3-carboxy-6,8-difluoro-1-ethyl-4-oxo-quinoline] | insoluble | 1 (≈ 3.95 µM) | 2 (≈ 7.9 µM) | 8 (≈ 31.6 µM) | 8 (≈ 31.6 µM) | 2 (≈ 7.9 µM) | 4 (≈ 15.8 µM) | soluble | 16 (≈ 63.2 µM) | 32 (≈ 126 µM) | 1 (≈ 3.95 µM) | 1 (≈ 3.95 µM) | 32 (≈ 126 µM) | 32 (≈ 126 µM) | 32 (≈ 126 µM) | 64 (≈ 253 µM) | –
O=C(O)c1cn(CCF)c2c(F)cc(F)cc2c1=O [Example 2] | insoluble | 4 (≈ 14.7 µM) | 8 (≈ 29.5 µM) | 32 (≈ 118 µM) | 32 (≈ 118 µM) | 4 (≈ 14.7 µM) | 8 (≈ 29.5 µM) | insoluble | 32 (≈ 118 µM) | 32 (≈ 118 µM) | 8 (≈ 29.5 µM) | 16 (≈ 59 µM) | 4 (≈ 14.7 µM) | 8 (≈ 29.5 µM) | 8 (≈ 29.5 µM) | 8 (≈ 29.5 µM) | –
O=C(O)c1cn(COCCO)c2c(F)cc(F)cc2c1=O [Example 3] | insoluble | 32 (≈ 107 µM) | 32 (≈ 107 µM) | 4 (≈ 13.4 µM) | 8 (≈ 26.7 µM) | 32 (≈ 107 µM) | 32 (≈ 107 µM) | soluble | 2 (≈ 6.68 µM) | 4 (≈ 13.4 µM) | 8 (≈ 26.7 µM) | 8 (≈ 26.7 µM) | 4 (≈ 13.4 µM) | 8 (≈ 26.7 µM) | 8 (≈ 26.7 µM) | 16 (≈ 53.5 µM) | –
O=C(O)c1cn(CC2CC2)c2c(F)cc(F)cc2c1=O [Example 4] | insoluble | 1 (≈ 3.58 µM) | 2 (≈ 7.16 µM) | 64 (≈ 229 µM) | 64 (≈ 229 µM) | 2 (≈ 7.16 µM) | 4 (≈ 14.3 µM) | soluble | 4 (≈ 14.3 µM) | 4 (≈ 14.3 µM) | 32 (≈ 115 µM) | 32 (≈ 115 µM) | 64 (≈ 229 µM) | 64 (≈ 229 µM) | 8 (≈ 28.6 µM) | 16 (≈ 57.3 µM) | –
O=C(O)c1cn(Cc2ccc([N+](=O)[O-])o2)c2c(F)cc(F)cc2c1=O [Example 5] | insoluble | 16 (≈ 45.7 µM) | 32 (≈ 91.4 µM) | 64 (≈ 183 µM) | 64 (≈ 183 µM) | 125 (≈ 357 µM) | 125 (≈ 357 µM) | soluble | 8 (≈ 22.8 µM) | 32 (≈ 91.4 µM) | 32 (≈ 91.4 µM) | 32 (≈ 91.4 µM) | 16 (≈ 45.7 µM) | 64 (≈ 183 µM) | 2 (≈ 5.71 µM) | 2 (≈ 5.71 µM) | –
O=C(O)c1cn(CC2CCCCC2)c2c(F)cc(F)cc2c1=O [Example 6] | insoluble | 8 (≈ 24.9 µM) | 8 (≈ 24.9 µM) | 64 (≈ 199 µM) | 64 (≈ 199 µM) | 4 (≈ 12.4 µM) | 4 (≈ 12.4 µM) | insoluble | 16 (≈ 49.8 µM) | 16 (≈ 49.8 µM) | 8 (≈ 24.9 µM) | 8 (≈ 24.9 µM) | 8 (≈ 24.9 µM) | 16 (≈ 49.8 µM) | 4 (≈ 12.4 µM) | 8 (≈ 24.9 µM) | less active
O=C(O)c1cn(Cc2c(Cl)cccc2Cl)c2c(F)cc(F)cc2c1=O [Example 7] | insoluble | 2 (≈ 5.21 µM) | 4 (≈ 10.4 µM) | 1 (≈ 2.6 µM) | 2 (≈ 5.21 µM) | 2 (≈ 5.21 µM) | 4 (≈ 10.4 µM) | insoluble | 32 (≈ 83.3 µM) | 64 (≈ 167 µM) | 16 (≈ 41.6 µM) | 32 (≈ 83.3 µM) | 8 (≈ 20.8 µM) | 8 (≈ 20.8 µM) | 8 (≈ 20.8 µM) | 8 (≈ 20.8 µM) | less active
O=C(N/N=C/c1ccc([N+](=O)[O-])o1)c1ccc(O)cc1 [Nif., Nifuroxazide, reference compound] | – | 500 (≈ 1820 µM) | 500 (≈ 1820 µM) | 4 (≈ 14.5 µM) | 4 (≈ 14.5 µM) | 500 (≈ 1820 µM) | 500 (≈ 1820 µM) | – | 1 (≈ 3.63 µM) | 1 (≈ 3.63 µM) | 8 (≈ 29.1 µM) | 8 (≈ 29.1 µM) | 8 (≈ 29.1 µM) | 8 (≈ 29.1 µM) | 500 (≈ 1820 µM) | 500 (≈ 1820 µM) | –
CCn1cc(C(=O)O)c(=O)c2cnc(N3CCNCC3)nc21 [Pip., Pipemidic acid, reference compound] | – | 4 (≈ 13.2 µM) | 8 (≈ 26.4 µM) | 4 (≈ 13.2 µM) | 4 (≈ 13.2 µM) | 4 (≈ 13.2 µM) | 8 (≈ 26.4 µM) | – | 4 (≈ 13.2 µM) | 125 (≈ 412 µM) | 4 (≈ 13.2 µM) | 4 (≈ 13.2 µM) | 2 (≈ 6.59 µM) | 250 (≈ 824 µM) | 1 (≈ 3.3 µM) | 16 (≈ 52.7 µM) | –
